Experimental findings from PMC8540442, “KBE009: A Bestatin-Like Inhibitor of the Trypanosoma cruzi Acidic M17 Aminopeptidase with In Vitro Anti-Trypanosomal Activity” (Life, 2021) are described below.

This test deals with T1, TcLAP (T. cruzi acidic M17 leucyl-aminopeptidase; LAPTc) (Trypanosoma cruzi, UniProt Q4DZJ3).
T1 construct: gene Tc00.1047053508799.240; recombinant TcLAP (rTcLAP)
T1 sequence (Q4DZJ3 1-520): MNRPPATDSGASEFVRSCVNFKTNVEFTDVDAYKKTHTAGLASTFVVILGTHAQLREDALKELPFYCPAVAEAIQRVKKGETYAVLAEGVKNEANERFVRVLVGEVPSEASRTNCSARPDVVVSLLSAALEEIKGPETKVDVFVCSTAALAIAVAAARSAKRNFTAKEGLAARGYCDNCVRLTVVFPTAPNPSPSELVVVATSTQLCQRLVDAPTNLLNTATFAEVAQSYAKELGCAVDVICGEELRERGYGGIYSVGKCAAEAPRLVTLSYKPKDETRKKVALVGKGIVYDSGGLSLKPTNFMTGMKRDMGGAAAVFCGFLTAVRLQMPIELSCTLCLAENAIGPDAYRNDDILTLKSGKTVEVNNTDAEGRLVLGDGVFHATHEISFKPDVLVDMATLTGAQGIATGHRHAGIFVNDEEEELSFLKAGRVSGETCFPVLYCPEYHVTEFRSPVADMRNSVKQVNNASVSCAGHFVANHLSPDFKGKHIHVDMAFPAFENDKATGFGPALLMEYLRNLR
The test can be described thus: continuous chromogenic assay of purified rTcLAP with Leu-pNA at […] nm, […] min preincubation. The test is classed as biochemical.

With `CC(C)C[C@@H](C(=O)O)N(C(=O)[C@H](N)Cc1ccccc1)C(C(=O)NCc1ccccc1)c1ccco1` (stereo partly shown) [KBE009], the midpoint of inhibition, the IC50, lay at 66 ± 13.5 µM.
